Test results: ChEMBL document CHEMBL4627246, “Pyroglutamide-Based P2X7 Receptor Antagonists Targeting Inflammatory Bowel Disease” (J Med Chem, 2020)

How the values were obtained:
Assay type in all cases: cell-based
RPMI-8226 = assay: Cytotoxicity against human RPMI8226 cells assessed as effect on cell growth at 10 uM incubated for 48 hrs by sulforhodamine B assay; conditions: rpmi-8226, 48 h
OVCAR-4 = assay: Cytotoxicity against human OVCAR4 cells assessed as effect on cell growth at 10 uM incubated for 48 hrs by sulforhodamine B assay; conditions: ovcar-4, 48 h
IGROV-1 = assay: Cytotoxicity against human IGROV1 cells assessed as effect on cell growth at 10 uM incubated for 48 hrs by sulforhodamine B assay; conditions: igrov-1, 48 h
SNB-19 = assay: Cytotoxicity against human SNB19 cells assessed as effect on cell growth at 10 uM incubated for 48 hrs by sulforhodamine B assay; conditions: snb-19, 48 h
MOLT-4 = assay: Cytotoxicity against human MOLT4 cells assessed as effect on cell growth at 10 uM incubated for 48 hrs by sulforhodamine B assay; conditions: molt-4, 48 h
LOX IMVI = assay: Cytotoxicity against human LOXIMVI cells assessed as effect on cell growth at 10 uM incubated for 48 hrs by sulforhodamine B assay
SK-OV-3 = assay: Cytotoxicity against human SKOV3 cells assessed as effect on cell growth at 10 uM incubated for 48 hrs by sulforhodamine B assay; conditions: sk-ov-3, 48 h
HT-29 = assay: Cytotoxicity against human HT-29 cells assessed as effect on cell growth at 10 uM incubated for 48 hrs by sulforhodamine B assay; conditions: ht-29, 48 h
SF-295 = assay: Cytotoxicity against human SF295 cells assessed as effect on cell growth at 10 uM incubated for 48 hrs by sulforhodamine B assay; conditions: sf-295, 48 h
SK-MEL-2 = assay: Cytotoxicity against human SK-MEL-2 cells assessed as effect on cell growth at 10 uM incubated for 48 hrs by sulforhodamine B assay; conditions: sk-mel-2, 48 h
SW-620 = assay: Cytotoxicity against human SW620 cells assessed as effect on cell growth at 10 uM incubated for 48 hrs by sulforhodamine B assay; conditions: sw-620, 48 h
BT-549 = assay: Cytotoxicity against human BT549 cells assessed as effect on cell growth at 10 uM incubated for 48 hrs by sulforhodamine B assay; conditions: bt-549, 48 h
NCI-H522 = assay: Cytotoxicity against human NCI-H522 cells assessed as effect on cell growth at 10 uM incubated for 48 hrs by sulforhodamine B assay; conditions: nci-h522, 48 h
KM12 = assay: Cytotoxicity against human KM12 cells assessed as effect on cell growth at 10 uM incubated for 48 hrs by sulforhodamine B assay; conditions: km12, 48 h
A549 = assay: Cytotoxicity against human A549/ATCC cells assessed as effect on cell growth at 10 uM incubated for 48 hrs by sulforhodamine B assay; conditions: a549, 48 h
OVCAR-8 = assay: Cytotoxicity against human OVCAR8 cells assessed as effect on cell growth at 10 uM incubated for 48 hrs by sulforhodamine B assay; conditions: ovcar-8, 48 h
SNB-75 = assay: Cytotoxicity against human SNB75 cells assessed as effect on cell growth at 10 uM incubated for 48 hrs by sulforhodamine B assay; conditions: snb-75, 48 h
NCI-H460 = assay: Cytotoxicity against human NCI-H460 cells assessed as effect on cell growth at 10 uM incubated for 48 hrs by sulforhodamine B assay; conditions: nci-h460, 48 h
NCI-H23 = assay: Cytotoxicity against human NCI-H23 cells assessed as effect on cell growth at 10 uM incubated for 48 hrs by sulforhodamine B assay; conditions: nci-h23, 48 h
T47D = assay: Cytotoxicity against human T47D cells assessed as effect on cell growth at 10 uM incubated for 48 hrs by sulforhodamine B assay

Measured: Activity

COc1cc(CNC(=O)[C@@H]2CCC(=O)N2)cc(OC)c1OC
Non-Toxic: all assays above

CN(Cc1ccccc1)C(=O)[C@@H]1CCC(=O)N1Cc1ccc(Cl)cc1Cl
Non-Toxic: all assays above

COC(=O)[C@@H]1C/C(=C\NCc2ccc(Cl)cc2Cl)C(=O)N1C(=O)OC
Non-Toxic: all assays above

O=C(NCc1ccc(Cl)cc1Cl)[C@@H]1CCC(=O)N1Cc1ccccc1
Non-Toxic: all assays above

COc1ccc(CN2C(=O)CC[C@H]2C(=O)NCCc2ccccc2)cc1
Non-Toxic: all assays above

O=C(NCc1ccc(Cl)cc1Cl)[C@@H]1CCC(=O)N1c1ccccc1
Non-Toxic: all assays above

O=C(NCc1ccc(Cl)cc1Cl)[C@@H]1CCC(=O)N1c1cccs1
Non-Toxic: all assays above

O=C(NCc1ccc(Cl)cc1Cl)[C@@H]1CCC(=O)N1c1cscn1
Non-Toxic: all assays above

O=C(NCc1ccccc1)[C@@H]1CCC(=O)N1Cc1ccc(Cl)cc1Cl
Non-Toxic: all assays above
